In US7491827B2, “Aryl sulfonamides useful as inhibitors of chemokine receptor activity” (Millennium Pharmaceuticals, Inc., priority 2003, dated 2009):

What follows are compounds tested against T1, cloned human CCR8 receptor stably expressed in L1.2 cells (Homo sapiens, UniProt P51685) (assay: whole cell binding screen: inhibition of biotinylated human I309 binding to CCR8 (FMAT 8100 HTS)). Settings: Ki of compounds to inhibit I-309 binding to CCR8, L1.2/hCCR8 cells, biotinylated human I-309, 10 point concentration response starting at 10 μM.
T1 construct: expressed in transfected cells
T1 sequence (P51685 whole entry): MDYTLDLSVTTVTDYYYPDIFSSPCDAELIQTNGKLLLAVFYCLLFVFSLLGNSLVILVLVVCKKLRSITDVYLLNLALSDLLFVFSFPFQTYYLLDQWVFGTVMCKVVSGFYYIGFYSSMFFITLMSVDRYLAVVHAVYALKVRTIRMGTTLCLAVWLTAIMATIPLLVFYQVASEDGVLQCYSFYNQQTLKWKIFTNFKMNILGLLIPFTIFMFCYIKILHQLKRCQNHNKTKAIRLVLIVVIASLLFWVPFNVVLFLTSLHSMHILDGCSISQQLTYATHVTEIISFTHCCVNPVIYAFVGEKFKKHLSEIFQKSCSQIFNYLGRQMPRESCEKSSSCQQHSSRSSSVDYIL
Procedure, shortened: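 Ten-point dilutions, top 10 μM final, were tested for displacing biotin-I309 from hCCR8-transfected L1.2 cells in HEPES-buffered HBSS with BSA and sodium azide, mixing 0.5 h before FMAT 8100 detection. Signals converted to percent inhibition against untreated wells and a 100 nM excess unlabeled I309 control.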
With `CCCC(=O)N1CCC(NS(=O)(=O)c2ccc(NC(=O)C3CCC3)c3ccccc23)CC1` [Compound D-19, Cyclobutanecarboxylic acid [4-(1-butyryl-piperidin-4-ylsulfamoyl)-naphthalen-1-yl]-amide] the Ki was < 500 nM.
For `Cc1ccccc1C(=O)Nc1ccc(S(=O)(=O)NC2CCN(C(=O)N3CCOCC3)CC2)c2ccccc12` [Compound C-33, 2-Methyl-N-{4-[1-(morpholine-4-carbonyl)-piperidin-4-ylsulfamoyl]-naphthalen-1-yl}-benzamide], the Ki was < 1000 nM.
With `O=C(Nc1ccc(S(=O)(=O)Nc2ccccc2)c2ccccc12)c1ccccc1` [Compound A-7, N-(4-Phenylsulfamoyl-naphthalen-1-yl)-benzamide] the Ki was < 1000 nM.

Same assay, conditions: L1.2/hCCR8 cells, biotinylated human I-309, 10 point concentration response starting at 10 μM; read-out: Ki of compounds to inhibit I-309 binding to CCR8
In the case of `Cc1ccccc1C(=O)Nc1ccc(S(=O)(=O)N[C@@H]2CCN(C(=O)[C@H](C)N)C[C@@H]2C)c2ccccc12` [Compound J-4, (3S, 4R)-N-{4-[1-(2-(S)-Amino-propionyl)-3-methyl-piperidin-4-ylsulfamoyl]-naphthalen-1-yl}-2-methyl-benzamide], the Ki is reported as < 500 nM.
With `CCOC(=O)N1CCC(NS(=O)(=O)c2cc3c(c(NC(=O)c4ccccc4)c2)CCCC3)CC1` [Compound H-56, 4-(4-Benzoylamino-5,6,7,8-tetrahydro-naphthalene-2-sulfonylamino)-piperidine-1-carboxylic acid ethyl ester] the Ki was < 500 nM.
In the case of `Cc1ccccc1C(=O)Nc1ccc(S(=O)(=O)N[C@@H]2CCN(Cc3ccccc3)C[C@H]2C)c2c1CCC2` (racemic) [Compound H-75, (±)-trans-N-[7-(1-Benzyl-3-methyl-piperidin-4-ylsulfamoyl)-indan-4-yl]-2-methyl-benzamide], the Ki is reported as < 1000 nM.
`O=C(Nc1cccc2ccc(S(=O)(=O)Nc3ccc(F)cc3)cc12)c1ccccc1` [Compound H-48, N-[7-(4-Fluoro-phenylsulfamoyl)-naphthalen-1-yl]-benzamide] was tested, and the Ki was < 30000 nM.
For `Cc1ccccc1C(=O)Nc1ccc(S(=O)(=O)N[C@H]2CCN(C(=O)C3(N)CC3)C[C@H]2C)c2ccccc12` [Compound J-9, (3R, 4S)-N-{4-[1-(1-Amino-cyclopropanecarbonyl)-3-methyl-piperidin-4-ylsuffamoyl]-naphthalen-1-yl}-2-methyl-benzamide], the Ki was < 500 nM.
In the case of `CCCC(=O)N1CCC(NS(=O)(=O)c2ccc(NC(=O)c3ccccc3C)c3c2CCC3)CC1` [Compound H-65, N-[7-(1-Butyryl-piperidin-4-ylsulfamoyl)-indan-4-yl]-2-methyl-benzamide], the Ki is reported as < 500 nM.
For `CCOC(=O)[C@@H]1CNCC[C@@H]1NS(=O)(=O)c1ccc(NC(=O)c2ccccc2C)c2ccccc12` (racemic) [Compound C-77, (±)-(cis)-4-[4-(2-Methyl-benzoylamino)-naphthalene-1-sulfonylamino]-piperidine-3-carboxylic acid ethyl ester], the Ki was < 30000 nM.
With `CCCC(=O)N1CCC(NS(=O)(=O)c2cccc3c(C(=O)NC4CCCC(C)C4C)cccc23)CC1` (racemic) [Compound H-31, (±)-5-(1-Butyryl-piperidin-4-ylsulfamoyl)-naphthalene-1-carboxylic acid (2,3-dimethyl-cyclohexyl)-amide] the Ki was < 500 nM.
For `CC[C@@H]1CN(C(=O)[C@@H]2CCCN2)CC[C@H]1NS(=O)(=O)c1ccc(NC(=O)c2ccccc2C)c2ccccc12` [Compound J-30, (3R, 4R)-N-{4-[3-Ethyl-1-(pyrrolidine-2-(S)-carbonyl)-piperidin-4-ylsulfamoyl]-naphthalen-1-yl}-2-methyl-benzamide], the Ki was < 500 nM.
In the case of `Cc1ccccc1C(=O)Nc1ccc(S(=O)(=O)N[C@H]2CCN(C(=O)N(C)C)C[C@H]2C)c2ccccc12` (racemic) [Compound C-29, (±)-cis-3-Methyl-4-[4-(2-methyl-benzoylandno)-naphthalene-1-sulfonylamio]-piperidine-1-carboxylic acid dimethylamide], the Ki is reported as < 500 nM.
In the case of `CCCC(=O)N1CCC(NS(=O)(=O)c2ccc(C(=O)Nc3ccccc3)c3ccccc23)CC1` [Compound F-25, 4-(1-Butyryl-piperidin-4-ylsulfamoyl)-naphthalene-1-carboxylic acid phenylamide], the Ki is reported as < 500 nM.
`CCOC(=O)N1CCC(NS(=O)(=O)c2ccc(CNCC3CCCCC3)c3ccccc23)CC1` [Compound G-27, 4-{4-[(Cyclohexylmethyl-amino)-methyl]-naphthalene-1-sulfonylamino}-piperidine-1-carboxylic acid ethyl ester] was tested, and the Ki was < 500 nM.
`CCCC(=O)N1CCC(NS(=O)(=O)c2ccc(NC(=O)c3c(F)cccc3C(F)(F)F)c3ccccc23)CC1` [Compound C-110, N-[4-(1-Butyryl-piperidin-4-ylsulfamoyl)-naphthalen-1-yl]-2-fluoro-6-trifluoromethyl-benzamide] was tested, and the Ki was < 500 nM.
For `Cc1ccccc1C(=O)Nc1ccc(S(=O)(=O)N[C@@H]2CCN(C(=O)[C@H](C)N)C[C@H]2C)c2ccccc12` [Compound J-3, (3R, 4R)-N-{4-[1-(2-(S)-Amino-propionyl)-3-methyl-piperidin-4-ylsulfamoyl]-naphthalen-1-yl}-2-methyl-benzamide], the Ki was < 500 nM.
For `Cc1ccccc1C(=O)Nc1cccc2c(S(=O)(=O)Nc3ccc(Cl)cc3)cccc12` [Compound H-21, N-[5-(4-Chloro-phenylsulfamoyl)-naphthalen-1-yl]-2-methyl-benzamide], the Ki was < 1000 nM.
`CCOC(=O)N1CCC(NS(=O)(=O)c2cccc3c(NC(=O)c4ccccc4C)cccc23)CC1` [Compound H-12, 4-[5-(2-Methyl-benzoylamino)-naphthalene-1-sulfonylamino]-piperidine-1-carboxylic acid ethyl ester] was tested, and the Ki was < 1000 nM.
For `Cc1ccccc1C(=O)Nc1ccc(S(=O)(=O)NC2[C@@H](C)CN(C(=O)N(C)C)C[C@@H]2C)c2ccccc12` (racemic) [Compound C-65, (±)-(cisstrans)-3,5-Dimethyl-4-[4-(2-methyl-benzoylamino)-naphthalene-1-sulfonylainno]-piperidine-1-carboxylic acid dimethylamide], the Ki was < 500 nM.
In the case of `CCCC(=O)N1CCC(C)(NS(=O)(=O)c2ccc(NC(=O)c3ccccc3C)c3ccccc23)CC1` [Compound C-27, N-[4-(1-Butyryl-4-methyl-piperidin-4-ylsulfamoyl)-naphthalen-1-yl]-2-methyl-benzamide], the Ki is reported as < 500 nM.
With `CCOC(=O)N1CCC(NS(=O)(=O)c2cccc3c(NC(=O)c4cccs4)cccc23)CC1` [Compound H-9, 4-15-[(Thiophene-2-carbonyl)-amino]-naphthalene-4-sulfonylamino-4-piperidine-1-carboxylic acid ethyl ester] the Ki was < 1000 nM.
`CCOC(=O)N1CCC(NS(=O)(=O)c2ccc(NC(=O)C3CCCCC3)c3ccccc23)CC1` [Compound B-12, 4-[4-(Cyclohexanecarbonyl-amino)-naphthalene-1-sulfonylamino]-piperidine-1-carboxylic acid ethyl ester] was tested, and the Ki was < 500 nM.
For `CC(C)(C)OC(=O)N1CCC(NS(=O)(=O)c2ccc(C(=O)NC3CCCCC3)c3ccccc23)CC1` [Compound F-1, 4-(4-Cyclohexylcarbamoyl-naphthalene-1-sulfonylamino)-piperidine-1-carboxylic acid tert-butyl ester], the Ki was < 1000 nM.
`CCOC(=O)N1CC[C@H](NS(=O)(=O)c2ccc(NC(=O)c3ccccc3C)c3ccccc23)[C@@H](CO)C1` (racemic) [Compound C-82, (±)-(trans)-3—Hydroxymethyl-4-[4-(2-methyl-benzoylamino)-naphthalene-1-sulfonylamino]-piperidine-1-carboxylic acid ethyl ester] was tested, and the Ki was < 500 nM.
For `C[C@@H]1CNCC[C@@H]1NS(=O)(=O)c1ccc(N2C(=O)c3ccccc3C2=O)c2ccccc12` (racemic) [Compound C-74, (±)-(cis)-4-(1,3-Dioxo-1,3-dihydro-isoindol-2-yl)-naphthalene-1-sulfonic acid (3-methyl-piperidin-4-yl)-amide], the Ki was < 30000 nM.
`CCOC(=O)N1CCC(NS(=O)(=O)c2cccc3c(C(=O)NC4CCCC(C)C4C)cccc23)CC1` (racemic) [Compound H-30, (±)-4-[5-(2,3-Dimethyl-cyclohexylcarbamoyl)-naphthalene-1-sulfonylamino]-piperidine-1-carboxylic acid ethyl ester] was tested, and the Ki was < 500 nM.
`CCOC(=O)N1CCC(NS(=O)(=O)c2ccc(NC(=O)c3ccccc3)c3c2CCCC3)CC1` [Compound E-4, 4-(4-Benzoylamino-5,6,7,8-tetrahydro-naphthalene-1-sulfonylamino)-piperidine-1-carboxylic acid ethyl ester] was tested, and the Ki was < 1000 nM.
`CCNC(=O)N1CCC(C)(NS(=O)(=O)c2ccc(NC(=O)c3ccccc3C)c3ccccc23)CC1` [Compound C-24, 4-Methyl-4-[4-(2-methyl-benzoylamino)-naphthalene-1-sulfonylamino]-piperidine-1-carboxylic acid ethylamide] was tested, and the Ki was < 500 nM.
With `CC[C@H](N)C(=O)N1CCC(NS(=O)(=O)c2ccc(NC(=O)c3ccccc3C)c3ccccc23)CC1` [Compound C-126, (S)-N-{4-[1-(2-Amino-butyryl)-piperidin-4-ylsulfamoyl]-naphthalen-1-yl}-2-methyl-benzamide] the Ki was < 500 nM.
For `Cc1cccc(NC(=O)c2ccc(S(=O)(=O)NC3CCNCC3)c3ccccc23)c1C` [Compound F-16, 4-(Piperidin-4-ylsulfamoyl)-naphthalene-1-carboxylic acid (2,3-dimethyl-phenyl)-amide], the Ki was < 30000 nM.
`CCCC(=O)N1CC[C@H](NS(=O)(=O)c2ccc(NC(=O)c3ncccc3C)c3ccccc23)[C@H](C)C1` (racemic) [Compound D-4, (±)-(cis)-3-Methyl-pyridine-2-carboxylic acid [4-(1-butyryl-3-methyl-piperidin-4-ylsulfamoyl)-naphthalen-1-yl]-amide] was tested, and the Ki was < 500 nM.
In the case of `COc1cccc(NS(=O)(=O)c2ccc(NC(=O)c3ccccc3)c3ccccc23)c1` [Compound A-1, N-[4-(3-Methoxy-phenylsulfamoyl)-naphthalen-1-yl]-benzamide], the Ki is reported as < 500 nM.
